From ChEMBL document CHEMBL4368941, “Discovery of 3,6-diaryl-1H-pyrazolo[3,4-b]pyridines as potent anaplastic lymphoma kinase (ALK) inhibitors” (Bioorg Med Chem Lett, 2019) come the findings set out here.

Structures are written as SMILES. pIC50: −log10 of the molar value.

The target of test [1] is ALK tyrosine kinase receptor (Homo sapiens, UniProt Q9UM73).
Description: Inhibition of recombinant ALK (unknown origin) using peptide substrate measured after 1 hr by LanthaScreen assay
For the next test, the system named is KARPAS-299. The experiment in a line: cells. The following applies: Homo sapiens, KARPAS-299, 72 h.

Sequence of ALK tyrosine kinase receptor (Q9UM73 whole entry): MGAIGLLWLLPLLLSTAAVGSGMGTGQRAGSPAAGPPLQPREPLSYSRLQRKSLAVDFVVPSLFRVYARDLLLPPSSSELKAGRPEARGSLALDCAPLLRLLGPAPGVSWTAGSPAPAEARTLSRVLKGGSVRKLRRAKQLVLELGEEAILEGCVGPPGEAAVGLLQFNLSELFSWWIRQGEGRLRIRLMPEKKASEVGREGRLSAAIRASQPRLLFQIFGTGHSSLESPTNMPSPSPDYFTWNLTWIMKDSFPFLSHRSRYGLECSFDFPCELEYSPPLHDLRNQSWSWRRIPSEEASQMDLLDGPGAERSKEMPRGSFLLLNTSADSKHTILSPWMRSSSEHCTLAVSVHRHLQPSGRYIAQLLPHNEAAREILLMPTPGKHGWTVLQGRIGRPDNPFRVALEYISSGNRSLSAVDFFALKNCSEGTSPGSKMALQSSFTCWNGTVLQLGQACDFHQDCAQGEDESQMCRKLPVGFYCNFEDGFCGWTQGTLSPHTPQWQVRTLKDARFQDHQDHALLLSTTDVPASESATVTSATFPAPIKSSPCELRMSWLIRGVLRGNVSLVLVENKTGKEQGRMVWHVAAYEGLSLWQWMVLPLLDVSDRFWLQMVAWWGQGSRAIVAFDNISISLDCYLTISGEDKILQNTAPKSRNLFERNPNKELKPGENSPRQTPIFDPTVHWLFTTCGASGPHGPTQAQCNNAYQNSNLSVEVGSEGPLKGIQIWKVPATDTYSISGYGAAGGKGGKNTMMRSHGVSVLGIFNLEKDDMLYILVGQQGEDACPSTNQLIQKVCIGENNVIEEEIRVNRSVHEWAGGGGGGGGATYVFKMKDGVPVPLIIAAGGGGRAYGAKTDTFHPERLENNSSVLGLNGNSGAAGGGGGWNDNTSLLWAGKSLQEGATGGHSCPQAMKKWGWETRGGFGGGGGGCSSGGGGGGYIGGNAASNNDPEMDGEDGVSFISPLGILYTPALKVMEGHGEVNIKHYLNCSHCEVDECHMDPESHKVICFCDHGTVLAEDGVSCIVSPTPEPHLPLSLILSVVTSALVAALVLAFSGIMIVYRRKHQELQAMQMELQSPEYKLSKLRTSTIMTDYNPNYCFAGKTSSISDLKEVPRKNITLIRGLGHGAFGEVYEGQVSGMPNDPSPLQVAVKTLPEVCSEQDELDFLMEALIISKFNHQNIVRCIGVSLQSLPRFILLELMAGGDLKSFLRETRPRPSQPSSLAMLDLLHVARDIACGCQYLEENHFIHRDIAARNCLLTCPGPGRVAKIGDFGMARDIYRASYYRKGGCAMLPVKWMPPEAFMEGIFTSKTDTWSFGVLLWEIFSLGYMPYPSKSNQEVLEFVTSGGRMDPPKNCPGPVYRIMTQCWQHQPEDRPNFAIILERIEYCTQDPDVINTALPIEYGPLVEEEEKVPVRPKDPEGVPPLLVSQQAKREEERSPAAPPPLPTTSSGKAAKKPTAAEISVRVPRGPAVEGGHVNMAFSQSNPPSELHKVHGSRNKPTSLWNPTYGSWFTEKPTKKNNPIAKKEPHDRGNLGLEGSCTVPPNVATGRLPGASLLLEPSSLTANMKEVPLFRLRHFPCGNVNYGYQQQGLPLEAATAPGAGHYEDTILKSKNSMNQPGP
Description for KARPAS-299: Antiproliferative activity against human KARPAS299 cells after 3 days by MTT assay

As a reminder, the pIC50 is the IC50 on a negative log10 scale, so that one unit is a factor of ten. A low value points to a high IC50. Compound `CC(C)N1CCN(c2ccc(-c3n[nH]c4nc(-c5ccc(F)cc5)ccc34)cc2)CC1` had a pIC50 in test [1] of less than 5.70.

As for `Oc1ccc(-c2ccc3c(-c4cnn(C5CCNCC5)c4)n[nH]c3n2)cc1`, the pIC50 in test [1] was 7.86; with KARPAS-299 it was 6.47.

Regarding `OCC1CCCCN1Cc1ccc(-c2n[nH]c3nc(-c4ccc(O)cc4)ccc23)o1` (stereo not drawn), the pIC50 in test [1] is 6.25.

For `Oc1ccc(-c2ccc3c(-c4ccc(O)cc4)n[nH]c3n2)cc1`, the pIC50 in test [1] was 6.89.

For the compound `CC(C)N1CCN(c2ccc(-c3n[nH]c4nc(-c5ccc(C#N)cc5)ccc34)cc2)CC1`, the negative-log IC50 (pIC50) (in test [1]; in the test with KARPAS-299) was less than 5.70 in each case.

As to `CC(C)N1CCN(Cc2ccc(-c3n[nH]c4nc(-c5ccc(O)cc5)ccc34)o2)CC1`, the pIC50 in test [1] is 6.99.

`COc1cc(N2CCN(C(C)C)CC2)ccc1-c1n[nH]c2nc(-c3ccc(O)c(F)c3)ccc12`: the pIC50 in test [1] is 7.28; in the test on KARPAS-299 it was 6.58.

For `CC(C)N1CCN(c2ccc(-c3n[nH]c4nc(-c5ccc(Cl)cc5)ccc34)cc2)CC1`, the pIC50 is less than 5.70 in test [1] and less than 5.00 with KARPAS-299.

Take `COc1cc(N2CCN(C(C)C)CC2)ccc1-c1n[nH]c2nc(-c3ccc(O)cc3)ccc12`: the pIC50 in test [1] is 7.57; in the test on KARPAS-299, 5.54.

In test [1], `CN(CCO)Cc1ccc(-c2n[nH]c3nc(-c4ccc(O)cc4)ccc23)o1` showed a pIC50 of 7.08.

On to `CC(C)N1CCN(c2ccc(-c3n[nH]c4nc(-c5ccc(C(C)(C)O)cc5)ccc34)cc2)CC1`, for which the negative logarithm of the IC50 (pIC50) is less than 5.70 in test [1] and 3.98 in the test on KARPAS-299.

`COc1ccc(-c2n[nH]c3nc(-c4ccc(O)cc4)ccc23)cc1`: the negative-log IC50 (pIC50) in test [1] is 6.62.

Regarding `CC(C)N1CCN(c2ccc(-c3n[nH]c4nc(-c5ccc(N)cc5)ccc34)cc2)CC1`, the pIC50 is 6.66 in test [1] and less than 5.00 in the test with KARPAS-299.

For `Oc1ccc(-c2ccc3c(-c4ccc(F)cc4)n[nH]c3n2)cc1`, in test [1], the pIC50 was 6.47.

For `CN1CCN(Cc2ccc(-c3n[nH]c4nc(-c5ccc(O)cc5)ccc34)o2)CC1`, the pIC50 in test [1] is 6.71.

For the compound `Oc1ccc(-c2ccc3c(-c4ccc(Cl)cc4)n[nH]c3n2)cc1`, the pIC50 in test [1] is less than 5.70.

As for `Cc1ccc(-c2n[nH]c3nc(-c4ccc(O)cc4)ccc23)o1`, the negative logarithm of the IC50 (pIC50) in test [1] was 7.27.

`Oc1ccc(-c2ccc3c(-c4ccc(CN5CCCC5)o4)n[nH]c3n2)cc1`: the pIC50 in test [1] is 6.60.

`CC(C)N1CCN(c2ccc(-c3n[nH]c4nc(-c5ccc(O)cc5)ccc34)cc2)CC1` showed a pIC50 in test [1] of 7.32.

In test [1], `Oc1ccc(-c2ccc3c(-c4ccc(CN5CCCCC5)o4)n[nH]c3n2)cc1` showed a pIC50 of 6.40.

Consider `CC(C)N1CCN(c2ccc(-c3n[nH]c4nc(-c5cc(F)c(O)c(F)c5)ccc34)cc2)CC1`, for which the pIC50 in test [1] is 6.19; with KARPAS-299, 6.83.

Take `Oc1ccc(-c2ccc3c(-c4ccc(N5CCCCC5)cc4)n[nH]c3n2)cc1`: the pIC50 in test [1] was 6.47.

On to `Oc1ccc(-c2ccc3c(-c4cnn(C5CCNCC5)c4)n[nH]c3n2)cc1F`, for which the pIC50 is 7.40 in test [1] and 5.68 with KARPAS-299.

In turn, `Oc1ccc(-c2ccc3c(-c4ccc(N5CCOCC5)cc4)n[nH]c3n2)cc1` showed a pIC50 in test [1] of 6.37.

Turning to `Oc1ccc(-c2ccc3c(-c4ccc(CN5CCOCC5)o4)n[nH]c3n2)cc1`, the pIC50 in test [1] is 7.03.

As for `Oc1ccc(-c2ccc3c(-c4ccccc4)n[nH]c3n2)cc1`, the pIC50 was 6.60 in test [1] and 7.62 with KARPAS-299.

Turning to `CC(C)N1CCN(c2ccc(-c3n[nH]c4nc(-c5ccc(O)c(F)c5)ccc34)cc2)CC1`, the pIC50 is 8.80 in test [1] and less than 5.70 in the test on KARPAS-299.
